Values quoted from earlier work, collected in patent US12377034B2, “Method for dyeing keratinous material, comprising the use of an organosilicon compound, an effect pigment and a film-forming polymer II” (Henkel AG & Co. KGaA, priority 2019, dated 2025).

Conditions: for solubility in water: 25° C.

Row | solubility in water | solubility in water (in words) (at 25° C.) | Compound
1 | above 40 g/L | – | O=[N+]([O-])c1cc([N+](=O)[O-])c2ccc(S(=O)(=O)O)cc2c1O [Acid Yellow 9, 8-hydroxy-5,7-dinitro-2-naphthalenesulfonic acid]
2 | more than 20 % by weight | – | CCN(Cc1cccc(S(=O)(=O)O)c1)c1ccc(C(=C2C=CC(=[N+](CC)Cc3cccc(S(=O)(=O)O)c3)C=C2)c2ccccc2S(=O)(=O)[O-])cc1 [Acid Blue 9]
3 | – | highly soluble | O=C(O)C1=NN(c2ccc(S(=O)(=O)O)cc2)C(=O)C1N=Nc1ccc(S(=O)(=O)O)cc1 (stereo not shown) [Acid Yellow 23, 4,5-dihydro-5-oxo-1-(4-sulfophenyl)-4-((4-sulfophenyl)azo)-1H-pyrazole-3-carboxylic acid]

Row | Compound | solubility in water | solubility in water (in words) (at 25° C.)
4 | O=S(=O)(O)c1ccc(N=Nc2c(O)ccc3ccccc23)cc1 [Acid Orange 7, 4-[(2-hydroxy-1-naphthyl)azo]benzene sulphonate] | more than 7 g/L | –
